Measurements from patent publication US20050107394A1, “Novel use of selective pde5 inhibitors” (priority 2001, published 2005).
“And” between values parts separate entries of the source, which are not always exact repeats. Equal values may be shown once. “Also recorded” adds a separate entry of the source.

Columns and labels:
Assay type in all cases: in vivo, human
[1] = test system: patients with chronic thromboembolism and displaying secondary PHT; experiment: Low V/Q perfusion by MIGET in patients with chronic thromboembolism; details: for effect on low-V/Q perfusion / ventilation/perfusion distribution (words): 7 patients with CTEPH; for low V/Q perfusion (MIGET), level reached: 7 patients, control 3.25%, PGI i.v. 6 ng/kg/min, NO 20 ppm inhaled, sildenafil 50 mg oral
Experimental: FIG. 3: Result of determination of the low V/Q perfusion measured by the inert gas exchange method (MIGET) [Wagner et al. J Appl Physiol. 1974;36:588-99] from 7 patients with chronic thromboembolism and displaying secondary PHT (pulmonary hypertension). Compared with the control group (3.25%), the shunting was increased with PGI (i.v.) [6 ng/kg bodyweight/min] to 19%, with NO (inhaled) [20 ppm] to 5.3% and with sildenafil (oral) [50 mg] to 5.3%.
(§1) 7 patients with CTEPH underwent a Swan-Ganz catheter investigation with measurement of the ventilation/perfusion (V/Q) distribution (using the multiple inert gas elimination technique (MIGET)). After determination of the baseline parameters (haemodynamics and gas exchange), all the patients initially inhaled 20 ppm NO, followed by a second baseline period (10-15 min), and then PGI was infused (6 ng/kg bodyweight/min), again followed by a second baseline period (10-15 min) and then an oral dose of 50 mg of sildenafil was given (120-150 min follow-up). 3 of the 7 patients were controlled by continuous nasal oxygen therapy in order to reach an arterial oxygenation of >88%. The following parameters were measured under baseline conditions: mean pulmonary arterial pressure (mPAP) 52.1 +/−3.3 mmHg, cardiac index (CI) 2.2+/−0.1 |* min^−1*m^−2, pulmonary vascular resistance index (PVRI) 1703.8+/−129.5 dyn*s*cm^−6*m^2, arterial pO2 72.5+/−3.3 mmHg and mixed venous oxygen saturation (SvO2) of 63.4+/−2.2%.

[2] = test system: patients with ILD displaying secondary PHT; experiment: Pulmonary vascular resistance in patients with ILD; details: 7 patients with ILD
Experimental: as §1, with “ILD” for “CTEPH”, “5” for “3”, “39.6+/−2.8 mmHg and” for “52.1 +/−3.3 mmHg, cardiac index (CI) 2.2+/−0.1 |* min^−1*m^−2,”, “1255+/−215 dyn*s*cm−5*m^2.” for “1703.8+/−129.5 dyn*s*cm^−6*m^2, arterial pO2 72.5+/−3.3 mmHg and mixed venous oxygen saturation (SvO2) of 63.4+/−2.2%.”
By contrast, PGI (intravenous) increased the lung areas from 7% to almost 20% and thus caused a deterioration in matching (FIG. 5). Corresponding to the matching, PGI reduced the O2 saturation by 12%, whereas NO brought about an improvement of 5% and sildenafil one of 15% (FIG. 6).

[3] = test system: patients with chronic thromboembolism and displaying secondary PHT; experiment: Arterial oxygen partial pressure in patients with chronic thromboembolism; details: 7 patients; for effect on arterial oxygen partial pressure: FIG. 4; for arterial oxygen partial pressure (PaO2), improvement: NO 20 ppm inhaled, sildenafil 50 mg oral
Experimental: FIG. 4: Result of measurement of the arterial oxygen partial pressure (PaO2) on 7 patients with chronic thromboembolism and displaying secondary PHT (pulmonary hypertension). The arterial oxygen partial pressure was improved by NO (inhaled) [20 ppm] and sildenafil (oral) [50 mg] by respectively 1.8% and 7.6%, whereas the oxygen saturation fell by 13% after administration of PGI (intravenous). In the same experiment, the vascular resistance was measured and determined as delta PVR by a right cardiac catheterization. The vascular resistance was reduced respectively by 25%, 19% and 21% after administration of PGI (intravenous) [6 ng/kg bodyweight/min], NO (inhaled) [20 ppm] and sildenafil (oral) [50 mg].
as §1

[4] = test system: patients with ILD (interstitial lung disease) displaying secondary PHT; experiment: Shunting by MIGET in patients with ILD; details: 7 patients with ILD; for shunting / shunt perfusion (MIGET), level reached: baseline 7.2%, PGI i.v., NO 20 ppm inhaled, sildenafil 50 mg oral
Experimental: FIG. 5: Result of determination of the shunting on 7 patients with ILD (interstitial lung disease) displaying secondary PHT. The measurement took place by the inert gas exchange method (MIGET) [Wagner et al. J Appl Physiol. 1974;36:588-99]. The shunting was reduced to 5% and 4.8%, respectively, by NO (inhaled) [20 ppm] and sildenafil (oral) [50 mg]. The shunting was increased to 18% after administration of PGI (prostacyclin, intravenous) […]].
as §1, with “ILD” for “CTEPH”, “5” for “3”, “39.6+/−2.8 mmHg and” for “52.1 +/−3.3 mmHg, cardiac index (CI) 2.2+/−0.1 |* min^−1*m^−2,”, “1255+/−215 dyn*s*cm−5*m^2.” for “1703.8+/−129.5 dyn*s*cm^−6*m^2, arterial pO2 72.5+/−3.3 mmHg and mixed venous oxygen saturation (SvO2) of 63.4+/−2.2%.”

Row | SMILES | effect on low-V/Q perfusion / ventilation/perfusion distribution (words) [1] | low V/Q perfusion (MIGET), level reached [1] [%] | effect on pulmonary vascular resistance [2] | pulmonary vascular resistance (PVR), reduction [2] | arterial oxygen partial pressure / oxygen saturation, decrease ([3]; PGI intravenous 6 ng/kg/min) [%] | shunting / shunt perfusion (MIGET), level reached [4] | effect on arterial oxygen partial pressure [3] | arterial oxygen partial pressure (PaO2), improvement [3] [%] | effect on shunting / ventilation/perfusion distribution [4] | effect on low-V/Q perfusion / ventilation/perfusion distribution (words) ([1]; listed as Sildenafil)
1 | CCCCC[C@H](O)/C=C/[C@@H]1[C@H]2C/C(=C/CCCC(=O)O)O[C@H]2C[C@H]1O [PGI, prostacyclin] | greatly increased | 19 | marked reduction | about 25% | 13 | 18% and ~20% |  |  |  | 
2 | [N]=O [NO, nitric oxide] | virtually unchanged; also recorded: increased slightly | 5.3 | marked reduction | about 25% |  | 5% | not changed | 1.8 | virtually unchanged; also recorded: no effect | 
3 | CCCc1nn(C)c2c(=O)[nH]c(-c3cc(S(=O)(=O)N4CCN(C)CC4)ccc3OCC)nc12 [sildenafil, 5-[2-ethoxy-5-(4-methyl-1-piperazinyl-sulphonyl)phenyl]-1-methyl-3-n-propyl-1,6-dihydro-7H-pyrazolo[4,3-d]pyrimidin-7-one] | virtually unchanged | 5.3 | marked reduction | about 25% |  | 4.8% | increased | 7.6 | virtually unchanged; also recorded: no effect | same effect as NO (inhaled)
